# Results: patent US20250163104A1, “MACROCYCLIC IMMUNOMODULATORS” (priority 2021, published 2025)
# Where a SMILES comes first, the peptide text is derived from it. Bridges are numbered along the chain shown (N, C = ends). [ ]: non-standard residue; d: D form. The star is where a group is joined. ξ: configuration not given here. Phe(3,4,5-F3) = N[C@@H](Cc1cc(F)c(F)c(F)c1)C(=O)O; Phe(3-CF3) = N[C@@H](Cc1cccc(C(F)(F)F)c1)C(=O)O; Phe(4-COOH) = N[C@@H](Cc1ccc(C(=O)O)cc1)C(=O)O; Bip = N[C@@H](Cc1ccc(-c2ccccc2)cc1)C(=O)O; Phe(3-Cl) = N[C@@H](Cc1cccc(Cl)c1)C(=O)O; Phe(3-OMe) = COc1cccc(C[C@H](N)C(=O)O)c1; Phe(3-Me) = Cc1cccc(C[C@H](N)C(=O)O)c1; Val(3-OH) = CC(C)(O)[C@H](N)C(=O)O; 4Pal = N[C@@H](Cc1ccncc1)C(=O)O; Cha = N[C@@H](CC1CCCCC1)C(=O)O; Cit = NC(=O)NCCC[C@H](N)C(=O)O; Ile(3ξ) = CCC(C)[C@H](N)C(=O)O; dCha = N[C@H](CC1CCCCC1)C(=O)O; ξCit = NC(=O)NCCCC(N)C(=O)O; Carboxymethyl = O=C(O)C*; Nle = CCCC[C@H](N)C(=O)O; Orn = NCCC[C@H](N)C(=O)O; Pra = C#CC[C@H](N)C(=O)O; Dab = NCC[C@H](N)C(=O)O; Dap = NC[C@H](N)C(=O)O
# Molecular target: T1, human PD-1 / PD-L1-Ig binding on Jurkat cell line over-expressing human PD-1 (Jurkat-PD-1) (Homo sapiens, UniProt Q15116)
# T1 construct: expressed in transfected cells; host or cells: Jurkat
# Test: Jurkat-PD-1 Cell Binding High-Content Screening Assay (CBA)
# Assay type: cell-based
# Details: Jurkat HPD1_PDL1 IC50, Jurkat-PD-1 cells, PE-labeled PD-L1-Ig 20 nM final
# Summary of the method: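 Cell-bound PE-labeled PD-L1-Ig (20 nM final, 1 h) measured by high-content imaging after fixation and Hoechst 33342 counterstain. Compound was applied first for 2 h at 37° C. to Jurkat cells over-expressing human PD-1 in DMEM with 10% FCS.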
# T1 sequence (Q15116 25-288): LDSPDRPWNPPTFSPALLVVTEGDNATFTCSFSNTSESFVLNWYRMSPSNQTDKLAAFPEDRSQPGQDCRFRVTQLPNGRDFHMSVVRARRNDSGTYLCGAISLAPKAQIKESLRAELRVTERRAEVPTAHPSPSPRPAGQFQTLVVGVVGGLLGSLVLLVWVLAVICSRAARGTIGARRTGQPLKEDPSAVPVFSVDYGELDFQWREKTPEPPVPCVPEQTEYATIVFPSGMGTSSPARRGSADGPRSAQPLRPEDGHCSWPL
row,IC50 [nM],SMILES
1,124,CC(C)C[C@@H]1NC(=O)[C@H](Cc2c[nH]c3ccccc23)NC(=O)[C@H](CC(=O)O)NC(=O)[C@H](Cc2ccc(O)cc2)NC(=O)[C@H](Cc2ccccc2)NC(=O)CSC[C@@H](C(=O)NCC(N)=O)NC(=O)[C@H]([C@@H](C)O)NC(=O)[C@H](C(C)C)NC(=O)[C@H](CC(C)C)NC(=O)[C@H](CC(N)=O)NC(=O)[C@@H](C)NC(=O)[C@H](CN)NC(=O)[C@H](C(C)C)NC(=O)[C@H](Cc2ccc(-c3ccccc3)cc2)NC1=O [Compound 1074] ({CH2CO}-FYDWL[Bip]V[Dap][dA]NLVTCG-NH2; thioether N-14)

# Same assay, conditions: Jurkat-PD-1 cells, PE-labeled PD-L1-Ig 20 nM final; read-out: Jurkat HPD1_PDL1 IC50
row,IC50 [nM],SMILES
1,38.9,CC(C)C[C@@H]1NC(=O)[C@H](CC(N)=O)NC(=O)[C@@H](CC(C)C)NC(=O)[C@H](CN)NC(=O)[C@H](C(C)C)NC(=O)[C@H](Cc2ccc(-c3ccccc3)cc2)NC(=O)[C@H](C(C)C)NC(=O)[C@H](Cc2c[nH]c3ccccc23)NC(=O)[C@H](CC(=O)O)NC(=O)[C@H](Cc2ccc(C(=O)O)cc2)NC(=O)[C@H](Cc2ccc(OCC(=O)O)cc2)NC(=O)CSC[C@@H](C(=O)NCC(N)=O)NC(=O)[C@H](CO)NC(=O)[C@H](C(C)C)NC1=O [Compound 1288] ({CH2CO}-Y(Carboxymethyl)[Phe(4-COOH)]DWV[Bip]V[Dap][dL]NLVSCG-NH2; thioether N-14)
2,39.3,CC(C)C[C@@H]1NC(=O)[C@H](CCN)NC(=O)[C@@H](CC(C)C)NC(=O)[C@H](CCN)NC(=O)[C@H](CCCNC(N)=O)NC(=O)[C@H](Cc2ccc(-c3ccccc3)cc2)NC(=O)[C@H](C(C)C)NC(=O)[C@H](Cc2c[nH]c3ccccc23)NC(=O)[C@H](CC(=O)O)NC(=O)[C@H](Cc2ccc(O)cc2)NC(=O)[C@H](CC(N)=O)NC(=O)CSC[C@@H](C(=O)NCC(N)=O)NC(=O)[C@H]([C@@H](C)O)NC(=O)[C@H](C(C)C)NC1=O [Compound 1117] ({CH2CO}-NYDWV[Bip][Cit][Dab][dL][Dab]LVTCG-NH2; thioether N-14)
3,33.5,CCC(C)[C@@H]1NC(=O)[C@H](Cc2ccc(-c3ccccc3)cc2)NC(=O)[C@H](C(C)C)NC(=O)[C@H](Cc2cccc(C)c2)NC(=O)[C@H](CC(=O)O)NC(=O)[C@H](Cc2ccc(C(=O)O)cc2)NC(=O)[C@H](Cc2ccncc2)NC(=O)CSC[C@@H](C(N)=O)NC(=O)[C@H]([C@@H](C)O)NC(=O)[C@H](C(C)C)NC(=O)[C@H](CC2CCCCC2)NC(=O)[C@H](CCN)NC(=O)[C@@H](CC(C)C)NC(=O)[C@H](CCCN)NC1=O (stereo partly drawn) [Compound 2275] ({CH2CO}-[4Pal][Phe(4-COOH)]D[Phe(3-Me)]V[Bip][Ile(3ξ)][Orn][dL][Dab][Cha]VTC-NH2; thioether N-14)
4,32,Cc1cccc(C[C@@H]2NC(=O)[C@H](CC(=O)O)NC(=O)[C@H](Cc3ccc(C(=O)O)cc3)NC(=O)[C@H](Cc3ccncc3)NC(=O)CSC[C@@H](C(N)=O)NC(=O)[C@H](CCC(N)=O)NC(=O)[C@H](C(C)C)NC(=O)[C@H](CC3CCCCC3)NC(=O)[C@H](CCN)NC(=O)[C@@H](CC(C)C)NC(=O)[C@H](CCCN)NC(=O)[C@H](CCCNC(N)=O)NC(=O)[C@H](Cc3ccc(-c4ccccc4)cc3)NC(=O)[C@H](C(C)C)NC2=O)c1 [Compound 2272] ({CH2CO}-[4Pal][Phe(4-COOH)]D[Phe(3-Me)]V[Bip][Cit][Orn][dL][Dab][Cha]VQC-NH2; thioether N-14)
5,17.9,CC(C)C[C@H]1NC(=O)[C@H](CCCN)NC(=O)[C@H](CCC(=O)O)NC(=O)[C@H](Cc2ccc(-c3ccccc3)cc2)NC(=O)[C@H](C(C)C)NC(=O)[C@H](Cc2cccc(Cl)c2)NC(=O)[C@H](CC(=O)O)NC(=O)[C@H](Cc2ccncc2)NC(=O)[C@H](CN)NC(=O)CSC[C@@H](C(=O)N[C@@H](C)C(N)=O)NC(=O)[C@H]([C@@H](C)O)NC(=O)[C@H](C(C)C)NC(=O)[C@H](CC2CCCCC2)NC(=O)[C@H](CCN)NC1=O [Compound 1496] ({CH2CO}-[Dap][4Pal]D[Phe(3-Cl)]V[Bip]E[Orn][dL][Dab][Cha]VTCA-NH2; thioether N-14)

# Second part, the compound before the results:
row,SMILES,IC50 [nM]
1,CC(C)C[C@H]1NC(=O)[C@H](CCCN)NC(=O)[C@H](C(C)C)NC(=O)[C@H](Cc2ccc(-c3ccccc3)cc2)NC(=O)[C@H](C(C)C)NC(=O)[C@H](Cc2c[nH]c3ccccc23)NC(=O)[C@H](CC(=O)O)NC(=O)[C@H](Cc2ccncc2)NC(=O)[C@H](Cc2ccc(OCC(=O)O)cc2)NC(=O)CSC[C@@H](C(=O)N[C@@H](C)C(N)=O)NC(=O)[C@H]([C@@H](C)O)NC(=O)[C@H](C(C)C)NC(=O)[C@H](CC2CCCCC2)NC(=O)[C@H](CCN)NC1=O [Compound 1331],6
2,COc1cccc(C[C@@H]2NC(=O)[C@H](CN)NC(=O)CSC[C@@H](C(=O)N[C@@H](C)C(N)=O)NC(=O)[C@H]([C@@H](C)O)NC(=O)[C@H](C(C)C)NC(=O)[C@H](CC3CCCCC3)NC(=O)[C@H](CCN)NC(=O)[C@@H](CC(C)C)NC(=O)[C@H](CCCN)NC(=O)[C@H](CCCNC(N)=O)NC(=O)[C@H](Cc3ccc(-c4ccccc4)cc3)NC(=O)[C@H](C(C)C)NC(=O)[C@H](Cc3c[nH]c4ccccc34)NC(=O)[C@H](CC(=O)O)NC2=O)c1 [Compound 2091] ({CH2CO}-[Dap][Phe(3-OMe)]DWV[Bip][Cit][Orn][dL][Dab][Cha]VTCA-NH2; thioether N-14),24.3
3,CC(C)C[C@H]1NC(=O)[C@H](CCCN)NC(=O)[C@H](C(C)C)NC(=O)[C@H](Cc2ccc(-c3ccccc3)cc2)NC(=O)[C@H](C(C)C)NC(=O)[C@H](Cc2c[nH]c3ccccc23)NC(=O)[C@H](CC(=O)O)NC(=O)[C@H](Cc2ccc(OCC(=O)O)cc2)NC(=O)[C@H](Cc2ccc(OCC(=O)O)cc2)NC(=O)CSC[C@@H](C(=O)N[C@@H](C)C(N)=O)NC(=O)[C@H]([C@@H](C)O)NC(=O)[C@H](C(C)C)NC(=O)[C@H](Cc2ccc(O)cc2)NC(=O)[C@H](CCN)NC1=O [Compound 1683] ({CH2CO}-Y(Carboxymethyl)Y(Carboxymethyl)DWV[Bip]V[Orn][dL][Dab]YVTCA-NH2; thioether N-14),104
4,COC[C@@H]1NC(=O)[C@H](Cc2ccc(OCC(=O)O)cc2)NC(=O)[C@H](CN)NC(=O)CSC[C@@H](C(=O)N[C@@H](C)C(N)=O)NC(=O)[C@H]([C@@H](C)O)NC(=O)[C@H](C(C)C)NC(=O)[C@H](CC2CCCCC2)NC(=O)[C@H](CCN)NC(=O)[C@@H](CC(C)C)NC(=O)[C@H](CCCN)NC(=O)[C@H](CCC(=O)O)NC(=O)[C@H](Cc2ccc(-c3ccccc3)cc2)NC(=O)[C@H](C(C)C)NC(=O)[C@H](Cc2c[nH]c3ccccc23)NC1=O [Compound 1500] ({CH2CO}-[Dap]Y(Carboxymethyl)S(Me)WV[Bip]E[Orn][dL][Dab][Cha]VTCA-NH2; thioether N-14),238
5,"CC(C)C[C@H]1NC(=O)[C@H](CCCN)NC(=O)[C@H](CCCNC(N)=O)NC(=O)[C@H](Cc2ccc(-c3ccccc3)cc2)NC(=O)[C@H](C(C)C)NC(=O)[C@H](Cc2c[nH]c3ccccc23)NC(=O)[C@H](CC(=O)O)NC(=O)[C@H](Cc2cc(F)c(F)c(F)c2)NC(=O)[C@H](CN)NC(=O)CSC[C@@H](C(=O)N[C@@H](C)C(N)=O)NC(=O)[C@H]([C@@H](C)O)NC(=O)[C@H](C(C)C)NC(=O)[C@H](CC2CCCCC2)NC(=O)[C@H](CCN)NC1=O [Compound 2127] ({CH2CO}-[Dap][Phe(3,4,5-F3)]DWV[Bip][Cit][Orn][dL][Dab][Cha]VTCA-NH2; thioether N-14)",47.4
6,CC(C)C[C@H]1NC(=O)[C@H](CCCN)NC(=O)[C@H](C(C)C)NC(=O)[C@H](Cc2ccc(-c3ccccc3)cc2)NC(=O)[C@H](C(C)C)NC(=O)[C@H](Cc2cccc(C(F)(F)F)c2)NC(=O)[C@H](CC(=O)O)NC(=O)[C@H](Cc2ccc(OCC(=O)O)cc2)NC(=O)[C@H](Cc2ccc(OCC(=O)O)cc2)NC(=O)CSC[C@@H](C(=O)N[C@@H](C)C(N)=O)NC(=O)[C@H]([C@@H](C)O)NC(=O)[C@H](C(C)C)NC(=O)[C@H](CC2CCCCC2)NC(=O)[C@H](CCN)NC1=O [Compound 1574],30.4
7,CCCC[C@@H]1NC(=O)CSC[C@@H](C(=O)N[C@@H](CCN)C(N)=O)NC(=O)[C@H](CO)NC(=O)[C@H](C(C)(C)O)NC(=O)[C@H](CC2CCCCC2)NC(=O)[C@H](CCN)NC(=O)[C@@H](CC(C)C)NC(=O)[C@H](CCCN)NC(=O)[C@H](Cc2ccc(C(=O)O)cc2)NC(=O)[C@H](Cc2ccc(-c3ccccc3)cc2)NC(=O)[C@H](Cc2ccc(C(=O)O)cc2)NC(=O)[C@H](Cc2cccc(C(F)(F)F)c2)NC(=O)[C@H](CC(N)=O)NC(=O)[C@H](Cc2ccc(C(=O)O)cc2)NC1=O [Example 2718] ({CH2CO}-[Nle][Phe(4-COOH)]N[Phe(3-CF3)][Phe(4-COOH)][Bip][Phe(4-COOH)][Orn][dL][Dab][Cha][Val(3-OH)]SC[Dab]-NH2; thioether N-14),330
8,C#CC[C@H](NC(=O)[C@H](CCN)NC(=O)[C@@H]1CSCC(=O)N[C@@H](CN)C(=O)N[C@@H](Cc2ccc(OCC(=O)O)cc2)C(=O)N[C@@H](CC(=O)O)C(=O)N[C@@H](Cc2cccc(C)c2)C(=O)N[C@@H](C(C)C)C(=O)N[C@@H](Cc2ccc(-c3ccccc3)cc2)C(=O)NC(CCCNC(N)=O)C(=O)N[C@@H](CCCN)C(=O)N[C@H](CC(C)C)C(=O)N[C@@H](CCN)C(=O)N[C@@H](CC2CCCCC2)C(=O)N[C@@H](C(C)C)C(=O)N[C@@H]([C@@H](C)O)C(=O)N1)C(=O)O (stereo partly drawn) [Compound 2258] ({CH2CO}-[Dap]Y(Carboxymethyl)D[Phe(3-Me)]V[Bip][ξCit][Orn][dL][Dab][Cha]VTC[Dab][Pra]-OH; thioether N-14),14.9
9,CC(C)[C@@H]1NC(=O)[C@H](Cc2c[nH]c3ccccc23)NC(=O)[C@H](CC(=O)O)NC(=O)[C@H](Cc2ccncc2)NC(=O)[C@H](Cc2ccc(OCC(=O)O)cc2)NC(=O)CSC[C@@H](C(=O)N[C@@H](C)C(N)=O)NC(=O)[C@H]([C@@H](C)O)NC(=O)[C@H](C(C)C)NC(=O)[C@H](CC2CCCCC2)NC(=O)[C@H](CCN)NC(=O)[C@@H](CC2CCCCC2)NC(=O)[C@H](CCCN)NC(=O)[C@H](CCC(=O)O)NC(=O)[C@H](Cc2ccc(-c3ccccc3)cc2)NC1=O [Compound 1441] ({CH2CO}-Y(Carboxymethyl)[4Pal]DWV[Bip]E[Orn][dCha][Dab][Cha]VTCA-NH2; thioether N-14),13.4
